Structures can show the parent of a compound that is named as a salt.

As usually defined, the IC50 is the concentration needed to halve the response being measured.

T1 sequence (P20231 31-275): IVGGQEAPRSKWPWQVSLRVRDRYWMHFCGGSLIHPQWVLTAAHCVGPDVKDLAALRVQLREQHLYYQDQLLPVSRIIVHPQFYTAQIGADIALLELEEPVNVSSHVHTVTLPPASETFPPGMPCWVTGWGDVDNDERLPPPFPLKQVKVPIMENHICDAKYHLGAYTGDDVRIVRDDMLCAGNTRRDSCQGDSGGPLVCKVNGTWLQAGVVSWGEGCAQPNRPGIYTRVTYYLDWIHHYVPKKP

This assay concerns the target T1, recombinant human tryptase, beta, from lung (Homo sapiens, UniProt P20231).
T1 construct: purchased Promega or Enzo Life Sciences G5631 or BML-SE418
Description: Inhibition of tryptase activity by coferons (Boc-Gln-Ala-Arg-AMC fluorescence). Format: biochemical. Conditions: coferon monomer alone; 1 nM tryptase. The procedure: Stock solutions of recombinant human tryptase, beta, from lung (Promega: catalog number G5631, or Enzo Life Sciences: catalog number BML-SE418) were made at 30 μM, in solution with 50 μM heparin sulfate and 500 mM NaCl. Coferon tryptase inhibitor stock solutions were made at 50 mM in DMSO. Drug plates were made at 5× the final concentration in assay buffer (50 mM HEPES, 150 mM NaCl, 100 μM EDTA, pH 7.4, 0.02% Tween-20). A final concentration of 1 nM tryptase was used. When required, drugs were diluted in assay buffer immediately before use in 10-fold serial dilutions. […] The Softmax Pro (Molecular Devices) and Graphpad prism software were used to determine Vmax, and concentration-response curve IC50s, respectively.
Turning to `NCc1cccc(C2CCN(C(=O)c3cccc4cc(B(O)O)ccc34)CC2)c1` [Example 34, (5-(4-(3-(amino methyl)phenyl)piperidine-1-carbonyl)napthalen-2-yl)boronic acid], the half-maximal inhibitory concentration (IC50) is 0.48 µM.
The figure for `NCc1cccc(C2CCN(C(=O)c3cccc4ccc(B(O)O)cc34)CC2)c1` [Example 35, (8-(4-(3-(aminomethyl)phenyl)piperidine-1-carbonyl)naphthalen-2-yl)boronic acid] is 15 µM; for `NCc1cccc(C2CCN(C(=O)Cc3cccc(B(O)O)c3)CC2)c1` [Example 36, (3-(2-(4-(3-(aminomethyl)phenyl)piperidin-1-yl)-2-oxoethyl)phenyl)boronic acid] it is 8.15 µM; for `NCc1cccc(C2CCN(C(=O)Cc3ccc(B(O)O)cc3)CC2)c1` [Example 37, (4-(2-(4-(3-(aminomethyl)phenyl)piperidin-1-yl)-2-oxoethyl)phenyl)boronic acid] it is 1.05 µM.
In the case of `NCc1cccc(C2CCN(C(=O)/C=C/c3ccc(O)c(O)c3)CC2)c1` [Example 39, (E)-1-(4-(3-(aminomethyl)phenyl)piperidin-1-yl)-3-(3,4-dihydroxyphenyl)prop-2-en-1-one hydrochloride], the IC50 was determined as 4.3 µM.
For the compound `NCc1cccc(C2CCN(C(=O)c3cccc4cc(O)c(O)cc34)CC2)c1` [Example 40, (4-(3-(aminomethyl)phenyl)piperidin-1-yl)(6,7-dihydroxynaphthalen-1-yl)methanone], the concentration for half-maximal inhibition (IC50) was found to be 1.2 µM.
Consider `NCc1cccc(C2CCN(C(=O)c3cccc(OCC(=O)N4C[C@@H](O)[C@@H](O)C4)c3)CC2)c1` [Example 50, 2-(3-(4-(3-(aminomethyl)phenyl)piperidine-1-carbonyl)phenoxy)-1-((3S,4R)-3,4-dihydroxypyrrolidin-1-yl)ethanone], for which the concentration for half-maximal inhibition (IC50) amounted to 7.5 µM.

The values are drawn from patent US9771345B2, “Coferons and methods of making and using them” (Cornell University, priority 2009, dated 2017).
